Source: US20240122934A1, “COMPOSITIONS AND METHODS OF TREATMENT FOR INHIBITING CAPILLARY TUBE REGRESSION” (University of South Florida, priority 2019, published 2024)
Entries after “also recorded” stand apart in the source; their conditions may differ.

Columns and labels:
Assay type in all cases: cell-based, human
[1] = system: EC sprouts and tubes; experiment: angiogenic sprouting assay (ECs invading from monolayer surface); conditions: for EC tube regression by signaling-mimicking drugs: Frax486 2.5 μM, vinblastine 100 nM, 24 hr
Procedure: (A) ECs were seeded onto a monolayer surface and then allowed to invade into the gels to form tubes over a 48 hr period. At this time, cultures were then treated with IL-1β or TNFα and in the absence or presence of FIST. Cultures were fixed after 24 hr, stained and photographed to visualize the monolayer surface and the underlying sprouts and tubes. (B) Cultures were established just like in A and then the Pak2 inhibitor, Frax486 (2.5 μM) or the microtubule depolymerizing agent, vinblastine (100 nM), were added to media in the presence or absence of FIST. Cultures were fixed after 24 hr, stained and photographed. Bar equals 200 μm.
Studies to define the factors and signals that promote endothelial cell (EC) lumen and tube formation, EC sprouting and EC-pericyte tube co-assembly have been performed under serum-free defined conditions so that the functional role of individual molecules that regulate these processes can be assessed. Disclosed herein, the factors that control capillary regression are defined. Capillary regression is a process that has been largely neglected despite the likelihood that it may present a fundamental pathogenic feature of major human diseases where capillary disassembly and regression are known to occur (i.e. hypertension, diabetes, ischemic disease in many tissues, neurodegenerative diseases, and malignant cancer). […] EC tube networks were allowed to form for 48 hr. (vasculogenesis type of assay) and then added these agents in dose-response experiments, showing that they potently induce EC tube regression (at low ng levels) (FIG. 1). Real-time movies were performed to visualize these pro-regressive activities. This experimental approach has utilized assays that mimic vasculogenesis or angiogenic sprouting and these factors induce regression equally well in both assay systems. […] These studies have been performed primarily in 3D collagen matrices, but the same result is also observed in 3D fibrin matrices.

[2] = system: EC tube networks; experiment: 3D collagen EC tube regression assay; conditions: for effect of added HDAC6 inhibitor on pharmacologic rescue: 10 μM added to FISSB2, mediators 10 ng/ml, thrombin 1 μg/ml; for effect of added HDAC6 inhibitor on pharmacologic rescue / EC tube regression (pro-regressive activity): 24 hr; for EC tube regression in screen of growth factors and cytokines: 40 and 10 ng/ml, 48 hr EC tube networks; for EC tube regression (pro-regressive activity): factor added to established 48 hr EC tube networks
Procedure: (A) EC cultures with tube networks were established for 48 hr followed by the addition of indicated cytokines or thrombin (Thr) for 24 hr. IL-1β and IL-la were added at 1 ng/ml, TNFα at 3.16 ng/ml and thrombin at 1 μg/ml. Bars equal 100 or 200 μm. (B,C,D) EC tube networks were treated with the indicated cytokines and varying concentrations in dose-response analyses and in the presence or absence of thrombin added at 1 μg/ml. After 24 hr, cultures were fixed, stained and quantitated for EC lumen area per field. These curves are from a representative experiment using triplicate wells for each condition. The values (±SD) are derived from analyzed fields (n=15) where total lumen and tube area was measured. Asterisks indicate significance at p<0.05 compared to control and squares indicate significance at p<0.05 compared to the cytokine treatments alone.
ECs (passages 3-6) and pericytes (passages 3-12) were cultured as previously described^49,50. THP-1 cells were cultured in RPMI-1640-20% FCS. THP-1-T macrophages were differentiated for 72 hr. with 50 ng/ml of phorbol ester in RPMI-20% FCS, and then treated for 48 hr. in RPMI-2% FCS prior to adding TLR ligands. THP-1-VT macrophages were induced to differentiate for 72 hr. with 10^-7 M vitamin D3 (Calcitriol) in RPMI-20% FCS, followed by 48 hr. with phorbol ester in RPMI-2% FCS prior to adding TLR ligands.
(§1) ECs or ECs with pericytes were suspended in 3D collagen matrices and incubated at 37° C. in serum-free defined media as described^9,50,51. Recombinant factors or THP-1 conditioned media were added at the indicated doses to existing 48 or 72 hr. cultures with EC only or EC-pericyte tube networks, respectively. After 24 or 48 hr. for EC only or EC-pericyte tubes, respectively, cultures were fixed in 3% glutaraldehyde or 3% paraformaldehyde. EC tube areas were traced and quantitated as described. In some cases, neutralizing antibodies were added (10 μg/ml). For signaling experiments, lysates were prepared from control vs. regressing 3D cultures at different time points.

[3] = system: EC-pericyte tube networks; experiment: EC-pericyte co-culture regression assay; conditions: added to 72 hr co-cultures
Procedure: (A) EC-pericyte (GFP-labeled) co-cultures were established and allowed to form for 72 hr and at this time, the combination of IL-1β (10 ng/ml), TNFα (10 ng/ml) and thrombin (11 μg/ml) were added in combination compared to control and real-time movies were performed. Light and fluorescent image overlays over time are shown in representative fields. Arrowheads indicate clusters of pericytes that accumulate together during regression responses in response to these three factors in combination. After 48 hr, fixed cultures were stained for CD31 to detect ECs and fluorescence image overlays were performed. (B) The same set up was established as in A, except that each individual factor and combination of factors were added. After 48 hr, the cultures were fixed and stained for CD31. Confocal images were obtained, and fluorescence overlay images are shown.
(A) EC-pericyte co-cultures were established for 72 hr, and then were left untreated or with IL-1β (10 ng/ml), TNFα (10 ng/ml), and thrombin (11 μg/ml) in combination. After 48 hr, cultures were fixed and stained with CD31, confocal microscopy and 3D reconstruction of the images allowed for an upright and side view. (B) EC-pericyte tube networks were treated with the indicated single and combined factors and after fixation, EC tube area was quantitated. […] The values (±SD) were obtained from analyzed fields (n=15) where total lumen and tube area was measured. Asterisks indicate increased significance at p<0.05 compared to control, the squares indicate decreased significance at p<0.05 relative to the single factor conditions and the triangle indicates significance at p<0.05 relative to the double factor conditions. (C) EC-pericyte tube networks were treated with indicated combinations of factors. After 48 hr, total GFP fluorescence per well was quantitated as a measure of pericyte number since they are GFP-labeled. […] Asterisks indicate significance at p<0.05 compared to control.
as §1

[4] = system: EC tube networks; experiment: Western blots of lysates from regressing 3D EC cultures (regression signaling signature); conditions: 24-hr. time course, compared to control EC tubes
Procedure: (A,B) ECs tube networks were treated with the indicated factors vs. control and at different time points, lysates were prepared from the 3D cultures. Western blots were performed using the different indicated antibodies. (C) Schematic illustrating findings that define a capillary regression signaling signature.
THP-T macrophages were treated with Pam3CSK4 (Pam) or LPS and conditioned medium was added at a 1:20 or 1:50 dilution, respectively, to EC tube networks. Control and IL10-treated cultures were compared with the conditioned medium treatments within the same experiment. At the indicated time points, lysates were obtained, and Western blots were performed with the indicated antibodies.
as §1

CCn1c(=O)c(-c2ccc(Cl)cc2Cl)cc2cnc(Nc3ccc(N4CCNCC4)c(F)c3)nc21 [Frax486, reference compound]
EC tube regression by signaling-mimicking drugs [1]: led to marked regression

C[C@@H](N)[C@H]1CC[C@H](C(=O)Nc2ccncc2)CC1 [Y27632, reference compound]
effect of adding drug to FISTSB on rescue ([2]; FISTSBY vs FISTSB): did not enhance the ability of FISTSB to rescue capillary regression

O=C(CCCCCCC(=O)Nc1ccc([C@H]2O[C@@H](CSc3nc(-c4ccccc4)c(-c4ccccc4)o3)C[C@@H](c3ccc(CO)cc3)O2)cc1)NO [tubacin, reference compound]
effect of added HDAC6 inhibitor on pharmacologic rescue [2]: enhance the pharmacologic rescue of capillary regression induced by pro-inflammatory mediators

CN1CCc2c(c3ccccc3n2Cc2ccc(C(=O)NO)cc2)C1 [tubastatin, reference compound]
effect of added HDAC6 inhibitor on pharmacologic rescue [2]: enhance the pharmacologic rescue of capillary regression induced by pro-inflammatory mediators

CC[C@]1(O)C[C@@H]2CN(CCc3c([nH]c4ccccc34)[C@@](C(=O)OC)(c3cc4c(cc3OC)N(C)[C@H]3[C@@](O)(C(=O)OC)[C@H](OC(C)=O)[C@]5(CC)C=CCN6CC[C@]43[C@@H]65)C2)C1 [vinblastine, reference compound]
EC tube regression by signaling-mimicking drugs [1]: led to marked regression

IFNα
EC tube regression in screen of growth factors and cytokines [2]: did not have any activity

IFNγ: interferon gamma
EC tube regression in screen of growth factors and cytokines [2]: demonstrated significantly increased regression at both doses

IL-1β: interleukin-1 beta, pro-inflammatory cytokine
EC tube regression in EC-pericyte co-cultures [3]: marked tube regression in response to each factor individually and, also in combination
pericyte numbers [3]: an increase in pericyte numbers
EC tube regression in screen of growth factors and cytokines [2]: more potent pro-regressive factors than the other factors described herein
EC tube regression (pro-regressive activity) [2]: directly cause capillary tube collapse and regression
ICAM-1 and VCAM-1 levels [4]: Strong upregulation of ICAM-1 and VCAM-1
phospho-Pak2, phospho-cofilin, acetylated tubulin, procaspase3 levels [4]: decreased levels of phospho-Pak2, phospho-cofilin, acetylated tubulin and procaspase3
phospho-p38, phospho-JNK, phospho-MLC2 levels [4]: increased levels of phospho-p38, phospho-JNK, and phospho-MLC2
degeneration of sprouts and EC monolayer ([1]; angiogenic sprouting system): induce degeneration of the invading sprouts, but also the EC monolayer surface where the sprouts originated

IL-6: cytokine co-induced in macrophages along with IL-1 and TNF
EC tube regression (pro-regressive activity) [2]: does not have pro-regressive activity; also recorded: had no regressive effect

IL-13: cytokine
EC tube regression in screen of growth factors and cytokines [2]: demonstrated significantly increased regression at both doses

TGFβ1: growth factor
EC tube regression in screen of growth factors and cytokines [2]: demonstrated significantly increased regression at both doses

B1: Light: pro-regressive factor identified in the cytokine screen (protein, UniProt O43557 83-240, looked up)
Tumor necrosis factor ligand …: LIQERRSHEVNPAAHLTGANSSLTGSGGPLLWETQLGLAFLRGLSYHDGALVVTKAGYYYIYSKVQLGGVGCPLGLASTITHGLYKRTPRYPEELELLVSQQSPCGRATSSSRVWWDSSFLGGVVHLEAGEKVVVRVLDERLVRLRDGTRSYFGAFMV
EC tube regression in screen of growth factors and cytokines [2]: demonstrated significantly increased regression at both doses

B2: IL-4: interleukin-4 (protein, UniProt P05112 25-153, looked up)
Interleukin-4: HKCDITLQEIIKTLNSLTEQKTLCTELTVTDIFAASKNTTEKETFCRAATVLRQFYSHHEKDTRCLGATAQQFHRHKQLIRFLKRLDRNLWGLAGLNSCPVKEANQSTLENFLERLKTIMREKYSKCSS
EC tube regression in screen of growth factors and cytokines [2]: demonstrated significantly increased regression at both doses

B3: BMP-10: growth factor (protein, UniProt O95393 317-424, looked up)
Bone morphogenetic protein 10: NAKGNYCKRTPLYIDFKEIGWDSWIIAPPGYEAYECRGVCNYPLAEHLTPTKHAIIQALVHLKNSQKASKACCVPTKLEPISILYLDKGVVTYKFKYEGMAVSECGCR
EC tube regression in screen of growth factors and cytokines [2]: demonstrated significantly increased regression at both doses

B4: BMP-9: growth factor (protein, UniProt Q9UK05 320-429, looked up)
Growth/differentiation factor …: SAGAGSHCQKTSLRVNFEDIGWDSWIIAPKEYEAYECKGGCFFPLADDVTPTKHAIVQTLVHLKFPTKVGKACCVPTKLSPISVLYKDDMGVPTLKYHYEGMSVAECGCR
EC tube regression in screen of growth factors and cytokines [2]: demonstrated significantly increased regression at both doses

B5: TGFβ2: growth factor (protein, UniProt P61812 303-414, looked up)
Transforming growth factor …: ALDAAYCFRNVQDNCCLRPLYIDFKRDLGWKWIHEPKGYNANFCAGACPYLWSSDTQHSRVLSLYNTINPEASASPCCVSQDLEPLTILYYIGKTPKIEQLSNMIVKSCKCS
EC tube regression in screen of growth factors and cytokines [2]: demonstrated significantly increased regression at both doses

B6: IL-la: IL-1 isoform, pro-regressive cytokine (protein, UniProt P01583 113-271, looked up)
Interleukin-1 alpha: SAPFSFLSNVKYNFMRIIKYEFILNDALNQSIIRANDQYLTAAALHNLDEAVKFDMGAYKSSKDDAKITVILRISKTQLYVTAQDEDQPVLLKEMPEIPKTITGSETNLLFFWETHGTKNYFTSVAHPNLFIATKQDYWVCLAGGPPSITDFQILENQA
EC tube regression (pro-regressive activity) [2]: directly cause capillary tube collapse and regression; also recorded: powerful ability to induce EC tube regression
